From patent publication US20060246163A1, “TREATMENT OF INSULIN RESISTANCE SYNDROME” (TG BIOTECH, priority 2005, published 2006)

Experiments:
Assay type in all cases: cell-based
AMPK = AMPK phosphorylation (threonine 172) in L6 myotube cells, immunoblot; conditions: 1 mM, high glucose
Description: L6 myotube cells were treated with 60 μg/mL of GP and incubated for the period of time indicated. Cells were lysed in lysis buffer and cytosolic proteins were resolved by SDS-PAGE, protein bands were transferred onto a nitrocellulose membrane, and phospho-AMPK was analyzed with specific antibodies. 1) control cells with no treatment; 2) cells treated with GP for 30 min; 3) cells treated with GP for 1 h; 3) cells with treated with GP for 2 hs.
(§2) The kinase activities were evaluated with specific antibodies. 1) control; 2) GP 30 μg/mL; 3) GP 60 μg/mL; 4) AICAR 1 mM.
We treated GP on L6 myotube cells to determine whether the treatment activates AMPK activity. Activation of AMPK was estimated by the increase in the phosphorylation on the threonine^172 residue of AMPK using specific antibodies. […] Cells were pretreated with high glucose (27.5 mM) to induce insulin resistance and to repress AMPK activation (Itani, 2003).
(§3) L6 cells were differentiated into mature muscle cells in a low serum condition (2%, v/v). AICAR was used as an internal positive control. Once drug treatments were completed, cells were harvested, subjected to be lysated, and equal amount of proteins from each treatment was loaded on gels for analyzing AMPK and p38 MAPK activity levels (FIG. 7). Total AMPK protein was also immunoblotted to make sure that equal amount of protein was loaded on the gels.

p38 MAPK = p38 MAPK activation in L6 cells; conditions: GP 30, 60 μg/mL; AICAR 1 mM
Description: as §2, §3
We investigated whether GP is able to activate p38 MAPK in L6 cells.

ACC = ACC Ser79 phosphorylation in L6 myotube cells; conditions: GP 30, 60, 100 μg/mL; AICAR 1 mM; insulin 100 nM
Description: (§1) 1) control; 2) GP 30 μg/mL; 3) GP 60 μg/mL; 4) GP 100 μg/mL; 5) AICAR 1 mM; 6) insulin 100 nM.
L6 myotube cells were treated with GP and AICAR.

AKT = AKT phosphorylation/activity in L6 cells; conditions: GP 30, 60, 100 μg/mL; AICAR 1 mM; insulin 100 nM
Description: as §1
AKT (also called protein kinase B, PKB) phosphorylation is catalyzed by PI3K in insulin signal pathway. Whether GP treatment on the muscle cells affects AKT activity was tested.

IKKβ = IKKβ phosphorylation/activity in L6 myotube cells in the presence of tunicamycin; conditions: GP 30, 60 μg/mL, AICAR 1 mM, insulin 100 nM
Description: The cytosolic fraction was subjected on SDS-PAGE and blotted on nitrocellulose membrane. The membrane was incubated with anti-phospho-IKKβ (S^177/181), anti-phospho IRS1 (S^307), and anti-phospho SAPK/JNK (T^183) antibodies. 1) control cells with no treatment; 2) L6 cells treated with tunicamycin; 3) cells treated with 30 μg/mL GP in the presence of tunicamycin; 4) cells treated with 60 μg/mL GP in the presence of tunicamycin; 5) cells treated with 1 mM AICAR in the presence of tunicamycin; 6) cells incubated with 100 nM insulin in the presence of tunicamycin; 7) cells incubated with 100 nM insulin in the absence of tunicamycin.
The effect of GP on the phosphorylation of IKKβ in L6 myotube cells in the presence of tunicamycin was evaluated. The cytosolic fraction was subjected to SDS-PAGE and blotted on nitrocellulose membrane. The cytosolic fraction was subjected to SDS-PAGE and blotted on nitrocellulose membrane. The membrane was incubated with anti-phospho-IKKβ (S^177/181), anti-phospho IRS1 (S^307), and anti-phospho SAPK/JNK (T^183) antibodies.

JNK = JNK activity in L6 myotube cells, phospho JNK immunoblot; conditions: 2 hs; GP 30, 60 μg/mL; AICAR 1 mM; insulin 100 nM
Description: L6 myotube cells were treated with GP for 2 hs. Cytosolic fraction was immunoblotted against phospho JNK antibodies. 1) control cells with no treatment; 2) GP 30 μg/ mL; 3) GP 60 μg/ mL; 4) AICAR 1 mM; 5) insulin 100 nM. We also investigated effects of GP treatment on JNK activity in L6 myotube cells.

L6 myotube cells = assay: 2-deoxyglucose uptake in L6 myotube cells; conditions: high glucose; GP 60 μg/mL 2 hs, AICAR 1 mM 1 h, insulin 100 nM 20 min
Description: Examples 1-5 indicate that GP would increase glucose uptake regardless of the presence of insulin. To measure the glucose uptake in vitro, we performed 2-deoxyglucose uptake experiment. Since 2-deoxyglucose is not metabolized inside cells, radiolabeled 2-deoxyglucose was used for measuring glucose uptake experiment. Whether GP increases glucose uptake in L6 myotube cells was investigated. Prior to adding the materials, the cells were incubated in the presence of high glucose, since high glucose is known to obstruct glucose uptake in muscle […] (60 μg/mL), AICAR (1 mM) and insulin (100 nM) were incubated for 2 hs, 1 h and 20 min, respectively. Immediately after washing in Hepes buffered saline (HBS), the cells were incubated with 2-deoxyglucose (10 μM) in HBS for 10 min. Extensive washing was preceded before measuring radioactivity in scintillation counter. The uptake unit was estimated by the total counts of incubation.

Compound | Phosphorylation level of AMPK (AMPK) | p38 MAPK activation (p38 MAPK) | Phosphorylation of Ser79 of ACC (ACC) | AKT activity (phosphorylation) (AKT) | Serine phosphorylation / activity of IKKβ (IKKβ) | JNK activity (JNK) | Increase of 2-deoxyglucose uptake, on average (L6 myotube cells) [%]
NC(=O)c1ncn([C@@H]2O[C@H](COP(=O)(O)O)[C@@H](O)[C@H]2O)c1N [AICAR, 5′-phosphoribosyl-5-aminoimidazole-4-carboxamide] | comparable to that of 60 μg/mL of GP | exhibited p38 activation | increased the phosphorylation of ACC but slightly less than that observed with 30 μg/mL of GP | Neither GP nor AICAR appeared to affect AKT activity | slightly reduced | not affected | 42
insulin: hormone used as positive marker/control for GLUT4 translocation and AKT activation |  |  | did not affect the phosphorylation | activated AKT activity considerably | slightly reduced | not affected | 40
